Source: patent US8987314B2, “Amide, urea or sulfone amide linked benzothiazole inhibitors of endothelial lipase” (Bristol-Myers Squibb Company, priority 2012, dated 2015)
Read-outs that look alike come from different tables or passages of the source.

Columns and labels:
Endothelial lipase (EL) = Endothelial lipase (EL) (Homo sapiens (Human), UniProt Q9Y5X9); assay: EL assay: endothelial lipase activity with fluorescent substrate A10070 in DMPG vesicles; format: biochemical
Outline: (§1)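 Compounds were preincubated with enzyme for 30 min at 37° C before FRET-substrate vesicles (A10070 in DMPG, 0.11 mole fraction) were added. Reaction rates were obtained from the 300–900 sec slope of fluorescence at 490/530 nm.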

hepatic lipase (HL) = hepatic lipase (HL) (Homo sapiens (Human), UniProt P11150); assay: HL assay: hepatic lipase activity with fluorescent substrate A10070 in DMPG vesicles; format: biochemical
Outline: as §1

[1] = EL from conditioned media of HT-1080 cells, 30 min incubation with compound at 37° C., A10070/DMPG vesicles
[2] = HL partially purified from conditioned media of COS cells, 30 min incubation with compound at 37° C., A10070/DMPG vesicles

Sequence of hepatic lipase (HL) (P11150 23-499, species assumed): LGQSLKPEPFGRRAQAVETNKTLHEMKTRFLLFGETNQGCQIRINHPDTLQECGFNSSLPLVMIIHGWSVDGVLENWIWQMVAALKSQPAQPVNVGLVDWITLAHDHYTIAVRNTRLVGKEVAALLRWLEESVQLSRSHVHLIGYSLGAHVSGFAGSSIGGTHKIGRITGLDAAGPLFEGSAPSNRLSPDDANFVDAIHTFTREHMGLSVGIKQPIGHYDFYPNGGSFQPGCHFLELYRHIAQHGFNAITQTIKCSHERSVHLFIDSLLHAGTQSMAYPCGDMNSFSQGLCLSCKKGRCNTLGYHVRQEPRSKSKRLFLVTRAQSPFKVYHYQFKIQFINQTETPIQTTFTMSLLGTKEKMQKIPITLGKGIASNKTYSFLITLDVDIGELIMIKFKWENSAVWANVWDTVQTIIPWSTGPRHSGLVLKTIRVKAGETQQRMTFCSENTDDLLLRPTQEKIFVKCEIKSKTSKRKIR
Sequence of Endothelial lipase (EL) (Q9Y5X9 21-500): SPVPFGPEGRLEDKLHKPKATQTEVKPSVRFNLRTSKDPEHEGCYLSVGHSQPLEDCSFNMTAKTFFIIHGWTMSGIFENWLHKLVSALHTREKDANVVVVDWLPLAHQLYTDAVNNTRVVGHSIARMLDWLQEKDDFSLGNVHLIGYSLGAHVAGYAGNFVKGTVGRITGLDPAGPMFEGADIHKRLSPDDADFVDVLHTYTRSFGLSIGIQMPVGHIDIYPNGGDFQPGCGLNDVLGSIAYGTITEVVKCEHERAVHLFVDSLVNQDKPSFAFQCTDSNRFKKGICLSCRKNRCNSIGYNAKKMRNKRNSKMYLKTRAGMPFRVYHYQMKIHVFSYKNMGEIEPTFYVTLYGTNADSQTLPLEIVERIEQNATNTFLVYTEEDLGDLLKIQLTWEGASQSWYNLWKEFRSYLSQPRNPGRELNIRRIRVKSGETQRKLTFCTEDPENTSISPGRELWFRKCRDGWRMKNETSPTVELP

In the case of `NS(=O)(=O)CCNC(=O)C(c1nc2ccc(-c3ccc(C(=O)N4CCOCC4)cc3)cc2s1)S(=O)(=O)CCN1CCOCC1` (stereo not shown) [Example B157, 2-{6-[4-(4-Morpholinylcarbonyl)phenyl]-1,3-benzothiazol-2-yl}-2-{[2-(4-morpholinyl)ethyl]sulfonyl}-N-(2-sulfamoylethyl)acetamide], the IC50 (Endothelial lipase (EL); [1]) is reported as < 10 nM and the IC50 (hepatic lipase (HL); [2]) is reported as 147 nM.

For `NS(=O)(=O)CCNC(=O)C(c1nc2ccc(-c3ccc(C(=O)N4CCOCC4)cc3)cc2s1)S(=O)(=O)CCNC(=O)OCc1ccccc1` (stereo not shown) [Example B158, benzyl (2-((1-(6-(4-(4-morpholinylcarbonyl)phen-yl)-1,3-benzothiazol-2-yl)-2-oxo-2-((2-sulfamoyl-ethyl)amino)ethyl)sul-fonyl)ethyl)carbamate], the IC50 (Endothelial lipase (EL)) was < 10 nM and the IC50 (hepatic lipase (HL)) was 31 nM.

For `NCCS(=O)(=O)C(C(=O)NCCS(N)(=O)=O)c1nc2ccc(-c3ccc(C(=O)N4CCOCC4)cc3)cc2s1` (stereo not shown) [Example B159], the IC50 (Endothelial lipase (EL)) was < 10 nM and the IC50 (hepatic lipase (HL)) was 22 nM.

`NS(=O)(=O)CCNC(=O)C(c1nc2cc(F)c(-c3ccccc3)cc2s1)S(=O)(=O)CCN1CCOCC1` (stereo not shown) [Example B160, 2-(5-fluoro-6-phenyl-1,3-benzothiazol-2-yl)-2-((2-(4-morpholinyl)ethyl)sul-fonyl)-N-(2-sulfamoylethyl)acetamide] was tested, and the IC50 (Endothelial lipase (EL)) was < 10 nM and the IC50 (hepatic lipase (HL)) was 20 nM.

For `NCCS(=O)(=O)C(C(=O)NCCS(N)(=O)=O)c1nc2ccc(-c3ccccc3)cc2s1` (stereo not shown) [Example B161, 2-((2-aminoethyl)sulfonyl)-2-(6-phenyl-1,3-benzothiazol-2-yl)-N-(2-sulfamoylethyl)acetamide], the IC50 (Endothelial lipase (EL)) was < 10 nM and the IC50 (hepatic lipase (HL)) was 22 nM.

For `COCCn1cc(-c2ccc3nc(C(C(=O)NCCS(N)(=O)=O)S(C)(=O)=O)sc3c2)cn1` (stereo not shown) [Example B162, 2-(6-(1-(2-Methoxyethyl)-1H-pyrazol-4-yl)-1,3-benzothiazol-2-yl)-2-(methylsulfonyl)-N-(2-sulfamoylethyl)acetamide], the IC50 (Endothelial lipase (EL); [1]) was < 10 nM and the IC50 (hepatic lipase (HL); [2]) was 995 nM.

`COCCn1cc(-c2ccc3nc(C(C(=O)NCCS(N)(=O)=O)S(=O)(=O)Cc4ccc(F)cc4)sc3c2)cn1` (stereo not shown) [Example B163, 2-((4-fluorobenzyl)sul-fonyl)-2-(6-(1-(2-methoxyethyl)-1H-pyrazol-4-yl)-1,3-benzothiazol-2-yl)-N-(2-sulfamoylethyl)a-cetamide] showed an IC50 (Endothelial lipase (EL)) of 28 nM and an IC50 (hepatic lipase (HL)) of 2550 nM.

`COCCn1cc(-c2ccc3nc(C(C(=O)NCCS(N)(=O)=O)S(=O)(=O)CC4CC4)sc3c2)cn1` (stereo not shown) [Example B165, 2-((cyclopropylmethyl)sul-fonyl)-2-(6-(1-(2-methoxyethyl)-1H-pyrazol-4-yl)-1,3-benzothiazol-2-yl)-N-(2-sulfamoylethyl)a-cetamide] gave an IC50 (Endothelial lipase (EL)) of 37 nM and an IC50 (hepatic lipase (HL)) of 317 nM.

`CS(=O)(=O)C(C(=O)NCCS(N)(=O)=O)c1nc2ccc(-c3ccc(C(=O)N4CC(F)(F)C4)cc3)cc2s1` (stereo not shown) [Example B166, 2-(6-(4-(3,3-Difluoroazetidine-1-carbonyl)phenyl)benzo[d]thiazol-2-yl)-2-(methylsulfonyl)-N-(2-sulfamoylethyl)acetamide] was tested, and the IC50 (Endothelial lipase (EL); [1]) was < 10 nM and the IC50 (hepatic lipase (HL); [2]) was 13 nM.

In the case of `COCCS(=O)(=O)C(C(=O)NCCS(N)(=O)=O)c1nc2ccc(-c3ccc(C(=O)N4CC(F)(F)C4)cc3)cc2s1` (stereo not shown) [Example B167, 2-(6-(4-((3,3-difluoro-1-azetidinyl)carbonyl)phen-yl)-1,3-benzothiazol-2-yl)-2-((2-methoxyethyl)sul-fonyl)-N-(2-sulfamoylethyl)acetamide], the IC50 (Endothelial lipase (EL)) is reported as < 10 nM and the IC50 (hepatic lipase (HL)) is reported as 79 nM.

With `COCCS(=O)(=O)C(C(=O)NCCS(N)(=O)=O)c1nc2ccc(-c3ccc(C(=O)N4CCC(F)(F)C4)cc3)cc2s1` (stereo not shown) [Example B168, 2-(6-(4-((3,3-difluoro-1-pyrrolidinyl)carbonyl)phen-yl)-1,3-benzothiazol-2-yl)-2-((2-methoxyethyl)sul-fonyl)-N-(2-sulfamoyl-ethyl)acetamide] the IC50 (Endothelial lipase (EL)) was < 10 nM and the IC50 (hepatic lipase (HL)) was 60 nM.
